Measured values reported in patent US9718790B2, “Triazine derivative and pharmaceutical composition having an analgesic activity comprising the same” (SHIONOGI & CO., LTD., priority 2010, dated 2017).

The compounds below were run against human P2X3 receptor (Homo sapiens (Human), UniProt P56373) (assay: Evaluation of human P2X3 receptor inhibitory activity (Fluo-3 calcium fluorescence, FDSS 3000, ATP stimulation)). Conditions: C6BU-1 cells stably expressing human P2X3 receptor, Fluo-3 fluorescence, FDSS 3000.
Chain of human P2X3 receptor (P56373 whole entry): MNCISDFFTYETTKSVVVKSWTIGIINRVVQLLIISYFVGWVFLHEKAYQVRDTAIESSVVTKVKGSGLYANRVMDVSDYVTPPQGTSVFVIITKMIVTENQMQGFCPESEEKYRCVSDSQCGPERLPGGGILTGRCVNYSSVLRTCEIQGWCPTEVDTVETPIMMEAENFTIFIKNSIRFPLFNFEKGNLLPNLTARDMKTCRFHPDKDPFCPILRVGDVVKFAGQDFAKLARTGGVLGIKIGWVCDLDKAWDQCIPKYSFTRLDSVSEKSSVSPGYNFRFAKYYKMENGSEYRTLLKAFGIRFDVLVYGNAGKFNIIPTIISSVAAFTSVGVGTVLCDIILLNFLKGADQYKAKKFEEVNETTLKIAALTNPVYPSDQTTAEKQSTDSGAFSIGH
Assay type: cell-based
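Note: stimulus was 50 nM ATP with fluorescence followed for 3 min, and the response per well was peak post-ATP fluorescence divided by the reading at measurement start.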

In order of rising IC50:
1. COC(=O)C(C)(C)Cn1c(=O)[nH]/c(=N\c2ccc3nc(C)sc3c2)n(Cc2ccc(Cl)cc2)c1=O [Compound I-1569]  4 nM
2. COC(=O)C(C)(C)Cn1c(=O)[nH]/c(=N\c2ccc3nc(C)sc3c2)n(Cc2ccc(C)cc2)c1=O [Compound I-1571]  4 nM
3. CCc1nc2ccc(/N=c3\[nH]c(=O)n(CC(C)(C)C(=O)OC)c(=O)n3Cc3ccc(C)cc3)cc2s1 [Compound I-1573]  4 nM
4. O=c1[nH]/c(=N\c2ccc(Oc3cncc(F)c3)cc2)n(Cc2ccc(Cl)cc2)c(=O)n1CCCO [Compound I-1596]  4 nM
5. Cc1ccc(Oc2ccc(/N=c3\[nH]c(=O)n(CCCO)c(=O)n3Cc3ccc(Cl)cc3)cc2)cn1 [Compound I-1597]  4 nM
6. CCOC(=O)CCn1c(=O)[nH]/c(=N\c2ccc3nc(C4CC4)sc3c2)n(Cc2ccc(C)cc2)c1=O [Compound I-1559]  5 nM
7. CCc1nc2ccc(/N=c3\[nH]c(=O)n(CC(C)(C)C(=O)OC)c(=O)n3Cc3ccc(Cl)cc3)cc2s1 [Compound I-1572]  5 nM
8. CCn1c(=O)[nH]/c(=N\c2ccc(Oc3ccnc(C)c3)cc2)n(Cc2ccc(Cl)cc2)c1=O [Compound I-1598]  5 nM
9. Cc1cc(Oc2ccc(/N=c3\[nH]c(=O)n(CCCO)c(=O)n3Cc3ccc(Cl)cc3)cc2)ccn1 [Compound I-1599]  5 nM
10. COC(=O)Cn1c(=O)[nH]/c(=N\c2ccc3nc(C)sc3c2)n(Cc2ccc(Cl)cc2)c1=O [Compound I-1602]  5 nM
11. Cc1nc2ccc(/N=c3\[nH]c(=O)n(C[C@H]4COC(C)(C)O4)c(=O)n3Cc3ccc(Cl)cc3)cc2s1 [Compound I-1603]  5 nM
12. CCc1nc2ccc(/N=c3\[nH]c(=O)n(CCNC(C)=O)c(=O)n3Cc3ccc(Cl)cc3)cc2s1 [Compound I-1612]  5 nM
13. CCOC(=O)CCn1c(=O)[nH]/c(=N\c2ccc3nc(C(C)C)sc3c2)n(Cc2ccc(C)cc2)c1=O [Compound I-1562]  6 nM
14. CCc1nc2ccc(/N=c3\[nH]c(=O)n(CC(C)(C)C(=O)O)c(=O)n3Cc3ccc(Cl)cc3)cc2s1 [Compound I-1578]  6 nM
15. CCc1nc2ccc(/N=c3\[nH]c(=O)n(CC(C)(C)C(=O)O)c(=O)n3Cc3ccc(C)cc3)cc2s1 [Compound I-1580]  6 nM
16. Cc1ccc(Cn2c(=O)n(C[C@H](C)C(=O)O)c(=O)[nH]/c2=N\c2ccc(Oc3ccn(C)c(=O)c3)cc2)cc1 [Compound I-1595]  6 nM
17. CCc1nc2ccc(/N=c3\[nH]c(=O)n(CCCNC(C)=O)c(=O)n3Cc3ccc(Cl)cc3)cc2s1 [Compound I-1613]  6 nM
18. Cc1ccc(Cn2c(=O)n(CC(C)(C)C(=O)O)c(=O)[nH]/c2=N\c2ccc3nc(C)sc3c2)cc1 [Compound I-1577]  7 nM
19. Cc1ccc(Cn2c(=O)n(C[C@H](C)CO)c(=O)[nH]/c2=N\c2ccc(CC(C)C)c(Cl)c2)cc1 [Compound I-1579]  7 nM
20. CCc1oc2ccc(/N=c3\[nH]c(=O)n(CC(C)(C)C(=O)O)c(=O)n3Cc3ccc(Cl)cc3)cc2c1C [Compound I-1581]  7 nM
21. CCc1oc2ccc(/N=c3\[nH]c(=O)n(CC(C)(C)C(=O)O)c(=O)n3Cc3ccc(C)cc3)cc2c1C [Compound I-1582]  7 nM
22. Cc1ccc(Cn2c(=O)n(C[C@H](C)C(N)=O)c(=O)[nH]/c2=N\c2ccc(CC(C)C)c(Cl)c2)cc1 [Compound I-1616]  7 nM
23. CCCc1nc2ccc(/N=c3\[nH]c(=O)n(CCC(=O)OCC)c(=O)n3Cc3ccc(C)cc3)cc2s1 [Compound I-1558]  8 nM
24. CCc1oc2ccc(/N=c3\[nH]c(=O)n(CCNC(=O)C(F)(F)F)c(=O)n3Cc3ccc(Cl)cc3)cc2c1C [Compound I-1565]  8 nM
25. CCc1oc2ccc(/N=c3\[nH]c(=O)n(CCNC(C)=O)c(=O)n3Cc3ccc(Cl)cc3)cc2c1C [Compound I-1566]  8 nM
26. CNC(=O)CCn1c(=O)[nH]/c(=N\c2ccc3nc(C)sc3c2)n(Cc2ccc(C)cc2)c1=O [Compound I-1570]  8 nM
27. Cc1nc2ccc(/N=c3\[nH]c(=O)n(CC(C)(C)C(=O)O)c(=O)n3Cc3ccc(Cl)cc3)cc2s1 [Compound I-1576]  8 nM
28. CCc1oc2ccc(/N=c3\[nH]c(=O)n(C[C@H]4COC(C)(C)O4)c(=O)n3Cc3ccc(Cl)cc3)cc2c1C [Compound I-1604]  8 nM
29. CC(=O)NCCn1c(=O)[nH]/c(=N\c2ccc(CC(C)C)c(Cl)c2)n(Cc2ccc(Cl)cc2)c1=O [Compound I-1611]  8 nM
30. CCc1oc2ccc(/N=c3\[nH]c(=O)n(CC(C)(C)C(=O)OC)c(=O)n3Cc3ccc(C)cc3)cc2c1C [Compound I-1575]  9 nM
31. CC(=O)NCCCn1c(=O)[nH]/c(=N\c2ccc(CC(C)C)c(Cl)c2)n(Cc2ccc(Cl)cc2)c1=O [Compound I-1614]  9 nM
32. CCc1oc2ccc(/N=c3\[nH]c(=O)n(CCCNC(C)=O)c(=O)n3Cc3ccc(Cl)cc3)cc2c1C [Compound I-1568]  10 nM
33. CCc1nc2ccc(/N=c3\[nH]c(=O)n(CC4(C(=O)O)CC4)c(=O)n3Cc3ccc(C)cc3)cc2s1 [Compound I-1556]  11 nM
34. CNC(=O)CCn1c(=O)[nH]/c(=N\c2ccc(Oc3ccc(O)nc3)cc2)n(Cc2ccc(Cl)cc2)c1=O [Compound I-1600]  11 nM
35. CCc1oc2ccc(/N=c3\[nH]c(=O)n(CCCNC(=O)C(F)(F)F)c(=O)n3Cc3ccc(Cl)cc3)cc2c1C [Compound I-1567]  12 nM
36. CC(=O)NCCCn1c(=O)[nH]/c(=N\c2ccc(O[C@H](C)C(F)(F)F)cc2)n(Cc2ccc(Cl)cc2)c1=O [Compound I-1615]  12 nM
37. CCc1oc2ccc(/N=c3\[nH]c(=O)n(CC(=O)OC)c(=O)n3Cc3ccc(Cl)cc3)cc2c1C [Compound I-1564]  13 nM
38. C[C@@H](C(=O)O)[C@H](C)n1c(=O)[nH]/c(=N\c2ccc3nc(C4CC4)sc3c2)n(Cc2ccc(Cl)cc2)c1=O [Compound I-1586]  13 nM
39. CC(C)c1nc2ccc(/N=c3\[nH]c(=O)n([C@@H](C)[C@@H](C)C(=O)O)c(=O)n3Cc3ccc(Cl)cc3)cc2s1 [Compound I-1585]  14 nM
40. CCOC(=O)CCn1c(=O)[nH]/c(=N\c2ccc(OC3CC3)c(Cl)c2)n(Cc2ccc(C)cc2)c1=O [Compound I-1606]  15 nM
41. CCc1oc2ccc(/N=c3\[nH]c(=O)n(CC4(C(=O)O)CC4)c(=O)n3Cc3ccc(C)cc3)cc2c1C [Compound I-1555]  16 nM
42. CCc1oc2ccc(/N=c3\[nH]c(=O)n(CC(C)(C)C(=O)OC)c(=O)n3Cc3ccc(Cl)cc3)cc2c1C [Compound I-1574]  18 nM
43. COC(=O)[C@@H](C)Cn1c(=O)[nH]/c(=N\c2ccc(OC3CC3)c(Cl)c2)n(Cc2ccc(C)cc2)c1=O [Compound I-1605]  18 nM
44. CNC(=O)[C@@H](C)Cn1c(=O)[nH]/c(=N\c2ccc(Oc3ccc(O)nc3)cc2)n(Cc2ccc(C)cc2)c1=O [Compound I-1601]  24 nM
45. Cc1ccc(Cn2c(=O)n(CCC(=O)O)c(=O)[nH]/c2=N\c2ccc3nc(C(C)C)sc3c2)cc1 [Compound I-1563]  31 nM
46. Cc1ccc(Cn2c(=O)n(CCC(=O)O)c(=O)[nH]/c2=N\c2ccc3nc(C4CC4)sc3c2)cc1 [Compound I-1561]  32 nM
47. Cc1ccc(Cn2c(=O)n(C[C@H](C)C(=O)O)c(=O)[nH]/c2=N\c2ccc(OC3CC3)c(Cl)c2)cc1 [Compound I-1607]  35 nM
48. COc1ccc2cc(/N=c3\[nH]c(=O)n([C@@H](C)[C@@H](C)C(=O)O)c(=O)n3Cc3ccc(Cl)cc3)ccc2n1 [Compound I-1587]  38 nM
49. CCCc1nc2ccc(/N=c3\[nH]c(=O)n(CCC(=O)O)c(=O)n3Cc3ccc(C)cc3)cc2s1 [Compound I-1560]  51 nM
50. Cc1cc2cc(/N=c3\[nH]c(=O)n([C@@H](C)[C@@H](C)C(=O)O)c(=O)n3Cc3ccc(Cl)cc3)cc(Cl)c2o1 [Compound I-1588]  67 nM
51. Cc1ccc(Cn2c(=O)n(CCC(=O)O)c(=O)[nH]/c2=N\c2ccc(OC3CC3)c(Cl)c2)cc1 [Compound I-1608]  100 nM
52. C[C@@H](C(=O)O)[C@H](C)n1c(=O)[nH]/c(=N\c2ccc3ncsc3c2)n(Cc2ccc(Cl)cc2)c1=O [Compound I-1589]  158 nM
53. CCc1oc2ccc(/N=c3\[nH]c(=O)n(CC(=O)O)c(=O)n3Cc3ccc(Cl)cc3)cc2c1C [Compound I-1609]  187 nM
54. Cc1nc2ccc(/N=c3\[nH]c(=O)n(CC(=O)O)c(=O)n3Cc3ccc(Cl)cc3)cc2s1 [Compound I-1610]  251 nM
55. CCn1c(C)nc2cc(/N=c3\[nH]c(=O)n([C@@H](C)[C@@H](C)C(=O)O)c(=O)n3Cc3ccc(Cl)cc3)ccc21 [Compound I-1583]  332 nM
56. C[C@@H](C(=O)O)[C@H](C)n1c(=O)[nH]/c(=N\c2ccc3sccc3c2)n(Cc2ccc(Cl)cc2)c1=O [Compound I-1590]  998 nM

Same assay, conditions: human P2X3 receptor, Test Example 1

In order of rising IC50:
1. CCOC(=O)C1(Cn2c(=O)[nH]/c(=N\c3ccc4nc(CC)sc4c3)n(Cc3ccc(C)cc3)c2=O)CC1 [Compound I-1547]  3 nM
2. C=COc1ccc(/N=c2\[nH]c(=O)n(C[C@H](C)C(=O)OC)c(=O)n2Cc2ccc(C)cc2)cc1Cl [Compound I-1548]  5 nM
3. CCOC(=O)C1(Cn2c(=O)[nH]/c(=N\c3ccc4oc(CC)c(C)c4c3)n(Cc3ccc(C)cc3)c2=O)CC1 [Compound I-1546]  7 nM
4. C=COc1ccc(/N=c2\[nH]c(=O)n(C[C@H](C)C(=O)O)c(=O)n2Cc2ccc(C)cc2)cc1Cl [Compound I-1549]  8 nM
5. CCc1oc2ccc(/N=c3\[nH]c(=O)n(CC4(C(=O)O)CC4)c(=O)n3Cc3ccc(Cl)cc3)cc2c1C [Compound I-1551]  9 nM
6. CCc1nc2ccc(/N=c3\[nH]c(=O)n(CC4(C(=O)O)CC4)c(=O)n3Cc3ccc(Cl)cc3)cc2s1 [Compound I-1553]  11 nM
7. Cc1ccc(Cn2c(=O)n(CC3(C(=O)O)CC3)c(=O)[nH]/c2=N\c2ccc3nc(C)sc3c2)cc1 [Compound I-1554]  14 nM
8. Cc1nc2ccc(/N=c3\[nH]c(=O)n(CC4(C(=O)O)CC4)c(=O)n3Cc3ccc(Cl)cc3)cc2s1 [Compound I-1552]  15 nM
9. C=COc1ccc(N(C)c2nc(=O)n(C[C@H](C)C(=O)OC)c(=O)n2Cc2ccc(C)cc2)cc1Cl [Compound I-1550]  833 nM
